# From US8652505B2, “Coating for medical implants” (Southwest Research Institute, priority 2010, dated 2014)
# Tested on: methicillin resistant Staphylococcus aureus (MRSA) bacteria (strain: ATCC#33591)
# Experiment: Bacteria inhibition test on Mueller-Hinton agar (zone of inhibition / MIC)
# Type: cell-based
# Protocol: Bacteria inhibition tests were performed on Agar according to the standard method by using methicillin resistant Staphylococcus aureus (MRSA) bacteria (strain: ATCC#33591) in order to determine if the released vancomycin was active and unaffected by the coating and polymerization procedures described herein. The bacteria suspensions were cultured onto separate Mueller-Hinton agar plates at a concentration of 1−2×10^8 CFU/mL (CFU=colony forming unites) and incubated at 37° C. Released vancomycin, free vancomycin, and a standard vancomycin disk (loaded with 30 μg of vancomycin) were compared. After 24 hrs, the zone of inhibition was measured. To measure the sensitivity or the minimum inhibition concentration (MIC), different concentrations of vancomycin were loaded onto cellulose discs (40, 20, 10, 5, 2.5, and 1.25 μg per disc, N=3) and the zone of inhibition was measured.
SMILES,"MIC (vancomycin loaded on cellulose discs, against S. Aureus, FIG. 10) [µg]","activity of released drug in bacteria inhibition test (zone of inhibition after 24 hrs, 37° C., compared with free vancomycin and standard 30 μg disk)"
CN[C@H](CC(C)C)C(=O)N[C@H]1C(=O)N[C@@H](CC(N)=O)C(=O)N[C@H]2C(=O)N[C@H]3C(=O)N[C@H](C(=O)N[C@H](C(=O)O)c4cc(O)cc(O)c4-c4cc3ccc4O)[C@H](O)c3ccc(c(Cl)c3)Oc3cc2cc(c3O[C@@H]2O[C@H](CO)[C@@H](O)[C@H](O)[C@H]2O[C@H]2C[C@](C)(N)[C@H](O)[C@H](C)O2)Oc2ccc(cc2Cl)[C@H]1O [vancomycin],0.5 to 1,
"CN[C@H](CC(C)C)C(=O)N[C@H]1C(=O)N[C@@H](CC(N)=O)C(=O)N[C@H]2C(=O)N[C@H]3C(=O)N[C@H](C(=O)N[C@H](C(=O)O)c4cc(O)cc(O)c4-c4cc3ccc4O)[C@H](O)c3ccc(c(Cl)c3)Oc3cc2cc(c3O[C@@H]2O[C@H](CO)[C@@H](O)[C@H](O)[C@H]2O[C@H]2C[C@](C)(N)[C@H](O)[C@H](C)O2)Oc2ccc(cc2Cl)[C@H]1O [released drug, vancomycin]",,same activity as the free drug and standard drug
